Laboratory results taken from ChEMBL document CHEMBL4308908, “Lamellarin-inspired potent topoisomerase I inhibitors with the unprecedented benzo[g][1]benzopyrano[4,3-b]indol-6(13H)-one scaffold” (Bioorg Med Chem, 2019).
Active and inactive are the calls of the source. The calls are words filed in the database; no cut-off is given here.

Assays:
ACHN = assay: Antiproliferative activity against human ACHN cells after 48 hrs by SRB assay; assay type: functional
MDA-MB-231 = assay: Antiproliferative activity against human MDA-MB-231 cells after 48 hrs by SRB assay; assay type: functional; details: MDA-MB-231, 48 h
SK-OV-3 = assay: Antiproliferative activity against human SKOV3 cells after 48 hrs by SRB assay; assay type: functional; details: SK-OV-3, 48 h
MKN-28 = assay: Antiproliferative activity against human MKN28 cells after 48 hrs by SRB assay; assay type: functional; details: MKN-28, 48 h
OVCAR-3 = assay: Antiproliferative activity against human OVCAR3 cells after 48 hrs by SRB assay; assay type: functional; details: OVCAR-3, 48 h
[1] = Toxicity in mouse Colon 26 cells implanted BALB/c mouse assessed as induction of body weight loss at 50 mg/kg, iv administered every 2 days for 7 times starting 1 day after tumor implantation and measured daily until day 20; assay type: organism-based; details: in vivo
U-251 = assay: Antiproliferative activity against human U251 cells after 48 hrs by SRB assay; assay type: functional; details: U-251, 48 h
OVCAR-4 = assay: Antiproliferative activity against human OVCAR4 cells after 48 hrs by SRB assay; assay type: functional; details: OVCAR-4, 48 h
Colon 26 = assay: Antitumor activity against mouse Colon 26 cells implanted in BALB/c mouse at 50 mg/kg, iv administered every 2 days for 7 times starting 1 day after tumor implantation and measured daily until day 20; assay type: functional, organism-based
LOX IMVI = assay: Antiproliferative activity against human LOXIMVI cells after 48 hrs by SRB assay; assay type: functional
OVCAR-5 = assay: Antiproliferative activity against human OVCAR5 cells after 48 hrs by SRB assay; assay type: functional; details: OVCAR-5, 48 h
[2] = Antiproliferative activity against human HBC4 cells after 48 hrs by SRB assay; assay type: functional; details: HBC4, 48 h
DMS-114 = assay: Antiproliferative activity against human DMS114 cells after 48 hrs by SRB assay; assay type: functional; details: DMS-114, 48 h
HT-29 = assay: Antiproliferative activity against human HT-29 cells after 48 hrs by SRB assay; assay type: functional; details: HT-29, 48 h
[3] = target: T1, DNA topoisomerase I (Bos taurus) (UniProt F1MN93); assay: Inhibition of calf thymus DNA topoisomerase 1 assessed as reduction in enzyme-mediated relaxation of supercoiled pBR322 plasmid DNA at 10 uM after 30 mins by ethidium bromide staining-based agarose gel electrophoresis
T1 sequence (whole entry): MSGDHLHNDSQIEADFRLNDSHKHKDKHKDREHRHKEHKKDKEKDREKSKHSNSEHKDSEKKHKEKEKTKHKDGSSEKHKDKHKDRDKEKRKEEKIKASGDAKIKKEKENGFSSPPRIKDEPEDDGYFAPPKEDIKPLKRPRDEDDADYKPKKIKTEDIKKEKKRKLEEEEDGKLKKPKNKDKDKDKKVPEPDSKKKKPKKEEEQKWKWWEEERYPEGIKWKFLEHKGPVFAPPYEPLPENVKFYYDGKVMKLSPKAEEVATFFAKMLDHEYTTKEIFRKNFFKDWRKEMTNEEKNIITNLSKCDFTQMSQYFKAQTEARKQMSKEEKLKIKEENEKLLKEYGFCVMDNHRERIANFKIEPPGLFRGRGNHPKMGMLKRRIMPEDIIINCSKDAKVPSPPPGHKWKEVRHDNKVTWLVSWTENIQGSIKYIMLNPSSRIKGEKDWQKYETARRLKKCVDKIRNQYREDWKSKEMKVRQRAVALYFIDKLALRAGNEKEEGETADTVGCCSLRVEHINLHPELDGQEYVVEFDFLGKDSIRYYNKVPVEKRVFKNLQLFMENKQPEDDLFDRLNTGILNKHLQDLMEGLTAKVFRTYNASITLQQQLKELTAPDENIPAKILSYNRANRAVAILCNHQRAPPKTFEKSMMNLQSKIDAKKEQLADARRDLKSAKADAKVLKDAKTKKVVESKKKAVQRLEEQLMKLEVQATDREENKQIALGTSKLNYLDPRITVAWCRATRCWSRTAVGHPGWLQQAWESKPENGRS

SNB-75 = assay: Antiproliferative activity against human SNB75 cells after 48 hrs by SRB assay; assay type: functional; details: SNB-75, 48 h
SF-539 = assay: Antiproliferative activity against human SF539 cells after 48 hrs by SRB assay; assay type: functional; details: SF-539, 48 h
A549 = assay: Antiproliferative activity against human A549 cells after 48 hrs by SRB assay; assay type: functional; details: A549, 48 h
SF-295 = assay: Antiproliferative activity against human SF295 cells after 48 hrs by SRB assay; assay type: functional; details: SF-295, 48 h
NCI-H522 = assay: Antiproliferative activity against human NCI-H522 cells after 48 hrs by SRB assay; assay type: functional; details: NCI-H522, 48 h
HCT-116 = assay: Antiproliferative activity against human HCT116 cells after 48 hrs by SRB assay; assay type: functional; details: HCT-116, 48 h
[4] = Antiproliferative activity against human BSY1 cells after 48 hrs by SRB assay; assay type: functional; details: BSY-1, 48 h
MKN-7 = assay: Antiproliferative activity against human MKN7 cells after 48 hrs by SRB assay; assay type: functional; details: MKN-7, 48 h
DMS-273 = assay: Antiproliferative activity against human DMS273 cells after 48 hrs by SRB assay; assay type: functional; details: DMS-273, 48 h
RXF 631 = assay: Antiproliferative activity against human RXF631L cells after 48 hrs by SRB assay; assay type: functional; details: RXF 631, 48 h
SF-268 = assay: Antiproliferative activity against human SF268 cells after 48 hrs by SRB assay; assay type: functional; details: SF-268, 48 h
PC-3 = assay: Antiproliferative activity against human PC3 cells after 48 hrs by SRB assay; assay type: functional; details: PC-3, 48 h
KM12 = assay: Antiproliferative activity against human KM12 cells after 48 hrs by SRB assay; assay type: functional; details: KM12, 48 h
NCI-H460 = assay: Antiproliferative activity against human NCI-H460 cells after 48 hrs by SRB assay; assay type: functional; details: NCI-H460, 48 h
NCI-H23 = assay: Antiproliferative activity against human NCI-H23 cells after 48 hrs by SRB assay; assay type: functional; details: NCI-H23, 48 h
St-4 = assay: Antiproliferative activity against human St-4 cells after 48 hrs by SRB assay; assay type: functional; details: St-4, 48 h
MCF7 = assay: Antiproliferative activity against human MCF7 cells after 48 hrs by SRB assay; assay type: functional; details: MCF7, 48 h
MKN-74 = assay: Antiproliferative activity against human MKN74 cells after 48 hrs by SRB assay; assay type: functional; details: MKN-74, 48 h

Compound: COc1cc2c(ccc3c4c(=O)oc5cc(OC(=O)[C@@H](N)C(C)C)c(OC)cc5c4n(C)c23)cc1OC(=O)[C@@H](N)C(C)C.O=C(O)C(F)(F)F.O=C(O)C(F)(F)F
- GI50 (ACHN; read-out: GI50): 2.9 nM
- GI50 (ACHN; read-out: pGI50 (converted)): 2.88 nM
- GI50 (MDA-MB-231): 148 nM
- GI50 (SK-OV-3; read-out: GI50): 20 nM
- GI50 (SK-OV-3; read-out: pGI50 (converted)): 19.9 nM
- GI50 (MKN-28; read-out: GI50): 41 nM
- GI50 (MKN-28; read-out: pGI50 (converted)): 40.7 nM
- GI50 (OVCAR-3): 56.2 nM
- Activity [1]: Non-Toxic
- GI50 (U-251; read-out: GI50): 3.4 nM
- GI50 (U-251; read-out: pGI50 (converted)): 3.39 nM
- GI50 (OVCAR-4): 36.3 nM
- Activity (Colon 26): Active
- GI50 (LOX IMVI; read-out: GI50): 2.5 nM
- GI50 (LOX IMVI; read-out: pGI50 (converted)): 2.51 nM
- GI50 (OVCAR-5): 45.7 nM
- GI50 [2]: 10 nM
- GI50 (DMS-114): 4.37 nM
- GI50 (HT-29): 955 nM
- inhibition [3]: Active
- GI50 (SNB-75): 8.32 nM
- GI50 (SF-539): 4.17 nM
- GI50 (A549): 52.5 nM
- GI50 (SF-295): 12.9 nM
- GI50 (NCI-H522; read-out: GI50): 3.4 nM
- GI50 (NCI-H522; read-out: pGI50 (converted)): 3.47 nM
- GI50 (HCT-116; read-out: GI50): 15 nM
- GI50 (HCT-116; read-out: pGI50 (converted)): 15.5 nM
- GI50 [4]: 38 nM
- GI50 (MKN-7): 52.5 nM
- GI50 (DMS-273): 4.27 nM
- GI50 (RXF 631): 1000 nM
- GI50 (SF-268): 8.32 nM
- GI50 (PC-3): 70.8 nM
- GI50 (KM12): 57.5 nM
- GI50 (NCI-H460): 4.37 nM
- GI50 (NCI-H23): 4.9 nM
- GI50 (St-4): 1000 nM
- GI50 (MCF7; read-out: GI50): 6.1 nM
- GI50 (MCF7; read-out: pGI50 (converted)): 6.17 nM
- GI50 (MKN-74): 75.9 nM
